ChEMBL document CHEMBL4339215, “Inhibition of PCSK9D374Y/LDLR Protein-Protein Interaction by Computationally Designed T9 Lupin Peptide” (ACS Med Chem Lett, 2019)
Activity calls are given as the source filed them. The calls are words filed in the database; no cut-off is given here.

Assays:
[1] = system: PCSK9/LDLR (Homo sapiens), Q8NBP7+P01130 [D374Y]; experiment: (§1) Binding affinity to C-terminal His tagged purified recombinant PCSK9 D374Y mutant (unknown origin) expressed in HEK293 cells assessed as dose dependent reduction in PCSK9/LDLR protein-protein interaction at 0.1 uM to 1 mM uM by chemiluminescent assay
PCSK9/LDLR = PCSK9/LDLR (Homo sapiens, UniProt Q8NBP7, D374Y); experiment: as §1
[2] = system: PCSK9/LDLR (Homo sapiens), Q8NBP7+P01130 [D374Y]; experiment: (§2) Inhibition of C-terminal His tagged purified recombinant PCSK9 D374Y mutant (unknown origin) and LDLR protein-protein interaction expressed in human HepG2 cells assessed as LDL-C uptake level at 10 uM incubated for 2 hrs by fluorescent LDL uptake cell-based assay (42.1 +/- 1.6%); parameters: scale not given: the % may be the effect or the level left
[3] = system: PCSK9/LDLR (Homo sapiens), Q8NBP7+P01130 [D374Y]; experiment: as §2, with “Potency index, ratio of T9 to test compound for inhibition” for “Inhibition”, “assay” for “assay (42.1 +/- 1.6%)”
[4] = system: PCSK9/LDLR (Homo sapiens), Q8NBP7+P01130 [D374Y]; experiment: Inhibition of C-terminal His tagged purified recombinant PCSK9 D374Y mutant (unknown origin) and LDLR protein-protein interaction expressed in human HepG2 cells assessed as LDLR protein expression level at cell surface at 10 uM incubated for 2 hrs by in-cell western analysis (reference value: 39.6 +/- 0.7%); assay type: cell-based; parameters: scale not given: the % may be the effect or the level left
[5] = system: PCSK9/LDLR (Homo sapiens), Q8NBP7+P01130 [D374Y]; experiment: Inhibition of C-terminal His tagged purified recombinant PCSK9 D374Y mutant (unknown origin) and LDLR protein-protein interaction expressed in human HepG2 cells assessed as LDLR protein expression level at cell surface at 10 uM incubated for 2 hrs by in-cell western analysis relative to T9 peptide; assay type: cell-based; parameters: scale not given: the % may be the effect or the level left
[6] = system: PCSK9/LDLR (Homo sapiens), Q8NBP7+P01130 [D374Y]; experiment: Binding affinity to C-terminal His tagged purified recombinant PCSK9 D374Y mutant (unknown origin) expressed in HEK293 cells assessed as reduction in PCSK9/LDLR protein-protein interaction at 100 uM by chemiluminescent assay

Chain of PCSK9/LDLR (Q8NBP7 whole entry D374Y, looked up): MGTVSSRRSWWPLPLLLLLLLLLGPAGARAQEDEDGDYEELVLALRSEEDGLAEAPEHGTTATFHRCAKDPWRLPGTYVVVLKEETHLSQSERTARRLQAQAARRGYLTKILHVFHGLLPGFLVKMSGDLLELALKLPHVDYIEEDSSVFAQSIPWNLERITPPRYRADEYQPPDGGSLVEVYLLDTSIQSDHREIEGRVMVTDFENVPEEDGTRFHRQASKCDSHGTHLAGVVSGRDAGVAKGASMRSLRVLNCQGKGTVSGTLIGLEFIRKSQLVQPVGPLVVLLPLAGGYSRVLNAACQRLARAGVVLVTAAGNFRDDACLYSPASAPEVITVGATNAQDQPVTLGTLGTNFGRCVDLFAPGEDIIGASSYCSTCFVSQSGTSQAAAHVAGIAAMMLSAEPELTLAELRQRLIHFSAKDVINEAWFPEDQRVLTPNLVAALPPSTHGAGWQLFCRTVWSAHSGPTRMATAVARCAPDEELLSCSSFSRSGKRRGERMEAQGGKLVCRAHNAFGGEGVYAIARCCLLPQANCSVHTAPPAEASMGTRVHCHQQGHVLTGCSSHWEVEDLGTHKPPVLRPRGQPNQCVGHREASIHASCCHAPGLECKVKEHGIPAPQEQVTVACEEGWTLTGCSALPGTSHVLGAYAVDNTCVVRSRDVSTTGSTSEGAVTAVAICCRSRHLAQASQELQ

Row | inhibition [1] | IC50 (PCSK9/LDLR) [µM] | Activity [2] [%] | Ratio [3] | Activity [4] [%] | Activity [5] [%] | inhibition [6] [%] | Molecule
1 | Dose-dependent effect | 148 | 102 | 35 | 83.8 | 12.7 |  | H-GQRQWKQAEGVMVR-OH
2 | inactive |  |  |  |  |  | 31.3 | CC[C@H](C)[C@H](NC(=O)[C@@H](NC(=O)CNC(=O)[C@H](CCC(=O)O)NC(=O)[C@H](C)NC(=O)[C@H](CCC(N)=O)NC(=O)[C@H](Cc1cnc[nH]1)NC(=O)[C@H](CO)NC(=O)[C@H](CCC(N)=O)NC(=O)[C@H](CCC(=O)O)NC(=O)[C@H](CCC(N)=O)NC(=O)CN)C(C)C)C(=O)N[C@H](C(=O)N[C@@H](CCCNC(=N)N)C(=O)O)C(C)C
